Test results reported in patent EP0196849A2, “Aminohydroxyalkylbenzene anti-obesity and/or anti-hyperglycaemic agents” (BEECHAM GROUP PLC, priority 1985, dated 1986).

Tested on: Female CFLP mice
Test: Anti-hyperglycaemic activity: subcutaneous glucose load in fasted mice, area under blood glucose curve
Type: in vivo
Details: 24 h fasted female CFLP mice, glucose 1 g/kg s.c. 30 min after dosing, 2-hour AUC vs water controls
Method: Female CFLP mice, weighing approximately 25g, were fasted for 24 hours prior to the study. The compounds under study were administered orally as an aqueous solution to each of 6 mice. Thirty minutes later a blood sample (20ul) was obtained from the tail for the analysis of blood glucose. Immediately after taking this blood sample, glucose (lg/kg body weight) was administered subcutaneously to each mouse. Six mice were given water as a control. Blood samples were then obtained from each mouse at 30 minute intervals for 120 minutes.
Compounds that produced a significant (p<0.05) reduction of blood glucose, compared with control mice given water, at any time interval were considered active. The area under the blood glucose curve over the 2-hour period after the administration of the glucose was calculated for each compound and compared with the value for control animals.

[1] = Dose 5 µmol/kg orally as aqueous solution

## O[C@@H](CNCCc1ccc(CCNC[C@H](O)c2cccc(Cl)c2)cc1)c1cccc(Cl)c1 [Example 6, (R,R)-a,a'-[1,4-Phenylenebis[(2,1-ethanediyl]imino]-methylene]bis[3-chlorobenzenemethanol]]
[1]
  % Reduction in area under blood glucose curve: 48%

## O[C@@H](CNCCOc1ccc(OCCNC[C@H](O)c2cccc(Cl)c2)cc1)c1cccc(Cl)c1 [Example 5, (R,R)-α,α^1-[1,4-Phenylenedioxybis[(2,1-ethanediyl)-imino]methylene]bis[3-chlorobenzenemethanol]]
Dose 2.5 µmol/kg orally as aqueous solution
  % Reduction in area under blood glucose curve: 30%

## O[C@@H](CNCCc1ccc(CCNC[C@H](O)c2ccccc2)cc1)c1ccccc1 [Example 4, (R,R)-a,a'-[1,4-Phenylenebis [(2,1-ethanediyl)imino]-methylene]bis[benzenemethanol]]
Dose 12.5 µmol/kg orally as aqueous solution
  % Reduction in area under blood glucose curve: 4.2%

## O[C@@H](CNCCOc1ccc(OCCNC[C@H](O)c2ccccc2)cc1)c1ccccc1 [Example 3, (R,R)-a-a'-[1,4-Phenylenedioxybis [(2,1-ethanediyl)-imino]methylene] bis [benzenemethanol]]
[1]
  % Reduction in area under blood glucose curve: 10%

## C[C@H](Cc1ccc(C[C@@H](C)NC[C@H](O)c2cccc(Cl)c2)cc1)NC[C@H](O)c1cccc(Cl)c1 [Example 2, (R,R,R,R)-α,α'-[1,4-Phenylenebis[(1-methyl-2,1-ethanediyl)imino]methylene]bis[3-chlorobenzenemethanol]]
Dose 25 µmol/kg orally as aqueous solution
  % Reduction in area under blood glucose curve: 49%
